# Measurements published in patent US20100093650A1, “Pharmaceutical Anit-Infective Composition for Inhalation” (LABORATORIES SMB S.A., priority 2006, published 2010).
# Tests used:
# [1] = In vitro lung deposition, Multistage Liquid Impinger (MLI); type: physicochemical; settings: for lung concentration per capsule: estimated from lung deposition with about 100 ml epithelial liquid in the lung, composition of example 6
# Text: The amount of macrolide agent inhaled shall be high enough to affect, in some way, the biofilm. It has to be noted that as the effect of macrolide derivatives on the biofilm is mediated through a non-antibacterial mechanism. […] Nevertheless, it is a another object of the present invention to provide a composition containing high concentrations (or amounts) of each of the aminoglycoside derivative and of the macrolide derivative i.e. at least more than 10%, preferably more than 15%, and more preferably more than 20% of the dry powder composition. It is indeed particularly interesting to achieve high lung doses of those therapeutic agents with the minimum amounts of inhalations because it makes the administration easier and more importantly increase the patient's compliance. It also decreases the nominal dose of each active ingredient and thus the adverse effects linked to these actives. In the present invention, the dry powder inhaler also provides a high Fine Particle Dose (FPD) and Fine Particle […] (FPF) when tested in vitro on a Multistage Liquid Impinger (MLI, Eur. Pharm, 5th Edition, chapter 2.9.18). The FPD and FPF are the parameters that predict in vivo lung deposition.
# The in vitro lung deposition test was performed using equipment and conditions as described in the European Pharmacopoeia (5th edition, chapter 2.9.18—apparatus C). This equipment consists of a Multistage Liquid Impinger (MLI) and was operated with an air flow of 100 L/min during a period of time of 2.4 seconds to simulate inhalation capabilities of patients. The quantification of the deposition of each drug on each stage of the MLI was performed by HPLC equipped with a a Corona detector.
# [2] = test system: planktonic Pseudomonas aeruginosa; assay: MIC on planktonic bacteria (NCCLS dilution method); type: cell-based
# Method: (§1) PY O1: is a cystic Fibrosis clinical mucoid strain of Pseudomonas aeruginosa received from the Erasme Hospital, Brussels.
# The determination of the minimal inhibitory concentration (MIC) is performed according to the standard of NCCLS (NCCLS, Methods for dilution Antimicrobial Susceptibility Tests for bacteria that grow aerobically; approved standards, sixth edition, M7-A6, vol. 23 no.2, January 2003.
# [3] = test system: 12 day biofilm of Pseudomonas aeruginosa; assay: Bacterial count (CFU/ml) of 12-day biofilm after 24 hours with the products; type: cell-based; settings: for bacterial count in biofilm (CFU/ml × 10^7): 24 hours; for decrease of the number of CFU/ml of the 12-day biofilm versus the positive control: concentrations of Table 1 (tobramycin 4 μg/ml; clarithromycin 100, 200, 500 μg/ml; combinations)
# Text: (§2) Biofilms of Pseudomonas aeruginosa—strain PY O1 were formed according to the methods described by Ceri et al, the calgary biofilm device: new technology for rapid determination of antibiotic susceptibilities of bacterial biofilms, Journal of clinical microbiology, pp. 1771-1776, 1999 and Abdi-Ali et al, bactericidal activity of various antibiotics against biofilm-producing Pseudomonas aeruginosa, International Journal of Antimicrobial Agents 27, 196-200, 2006.
# as §1
# After having shown that the number of Pseudomonas aeruginosa within the biofilms was stable after 12 days, the products listed in Table 1 were added to the media for the duration of 24 hours. Thereafter the biofilm was rinsed three times with a 0.01 M phosphate buffer adjusted at pH 7.5 in order to remove all cells not bound to the biofilm. The microplate was then placed on ultrasonic bath at 35° C. for 5 minutes to allow the bacteria present in the biofilm to separate from such biofilm. A bacterial count was then performed (number of coloning forming unit CFU/ml). Each experience was done twice and the CFU counting was also repeated twice/experience.
# [4] = Particle size by laser diffraction; type: physicochemical; settings: micronized, measured by laser diffraction
# Text: A dry powder composition for inhalation of tobramycin and clarithromycin was formulated using micronized tobramycin supplied by Teva Plantex (Israel). Clarithromycin was supplied by Teva Plantex (Israel) in a non-micronized form. Clarithromycin was then micronized using the micronizer MC-one® (JetpHarma, Switerland). […] The micronisation parameters were a pressure of 10 bars in the Venturi, a pressure of 8 bars in the ring and a feeding rate of 5 g/minute. The mean particle size of the micronized clarithromycin obtained (measured by laser diffraction) was 1.6 μm.
# [5] = test system: 12 day old Pseudomonas aeruginosa biofilm; assay: MIC on 12 day old biofilm; type: cell-based
# Text: as §2, §1
# In a second experiment using the same modus operandi as above, we measured the MIC of Tobramycin on a 12 day old Pseudomonas aeruginosa biofilm. This situation is much closer to the situation observed in vivo in chronic respiratory diseases like Cystic Fibrosis.
# [6] = MLI1, example 6 capsule 10 mg/10 mg, MLI 100 L/min
# [7] = MLI2, example 6 capsule 10 mg/10 mg, MLI 100 L/min
# [8] = MLI3, example 6 capsule 10 mg/10 mg, MLI 100 L/min
# [9] = Mean (n = 3), example 6 capsule 10 mg/10 mg, MLI 100 L/min
# [10] = composition of example 6, MLI 100 L/min
smiles,measurement,setting,value
CC[C@H]1OC(=O)[C@H](C)[C@@H](O[C@H]2C[C@@](C)(OC)[C@@H](O)[C@H](C)O2)[C@H](C)[C@@H](O[C@@H]2O[C@H](C)C[C@H](N(C)C)[C@H]2O)[C@](C)(OC)C[C@@H](C)C(=O)[C@H](C)[C@@H](O)[C@]1(C)O [Clarithromycin],Device deposition,[1]; [6],1.155 mg
same,FPD,[1]; [6],3.14 mg
same,FPF,[1]; [6],31.4%
same,Filter deposition,[1]; [6],0.478 mg
same,Stage 1 deposition,[1]; [6],1.338 mg
same,Stage 2 deposition,[1]; [6],0.664 mg
same,Stage 3 deposition,[1]; [6],1.715 mg
same,Stage 4 deposition,[1]; [6],1.162 mg
same,Throat deposition,[1]; [6],1.025 mg
same,Device deposition,[1]; [7],1.048 mg
same,FPD,[1]; [7],3.76 mg
same,FPF,[1]; [7],37.6%
same,Filter deposition,[1]; [7],0.598 mg
same,Stage 1 deposition,[1]; [7],1.566 mg
same,Stage 2 deposition,[1]; [7],0.845 mg
same,Stage 3 deposition,[1]; [7],1.891 mg
same,Stage 4 deposition,[1]; [7],1.482 mg
same,Throat deposition,[1]; [7],1.134 mg
same,Device deposition,[1]; [8],1.433 mg
same,FPD,[1]; [8],3.98 mg
same,FPF,[1]; [8],39.9%
same,Filter deposition,[1]; [8],0.574 mg
same,Stage 1 deposition,[1]; [8],1.352 mg
same,Stage 2 deposition,[1]; [8],0.680 mg
same,Stage 3 deposition,[1]; [8],2.078 mg
same,Stage 4 deposition,[1]; [8],1.533 mg
same,Throat deposition,[1]; [8],1.223 mg
same,Device deposition,[1]; [9],1.212 mg
same,FPD,[1]; [9],3.63 mg
same,FPF,[1]; [9],36.3%
same,Filter deposition,[1]; [9],0.550 mg
same,Stage 1 deposition,[1]; [9],1.419 mg
same,Stage 2 deposition,[1]; [9],0.729 mg
same,Stage 3 deposition,[1]; [9],1.895 mg
same,Stage 4 deposition,[1]; [9],1.392 mg
same,Throat deposition,[1]; [9],1.127 mg
same,FPD/capsule,[1]; [10],3.63 mg
same,FPF,[1]; [10],36.3%
same,lung concentration per capsule,[1],36.3 µg/mL
same,sensitivity of the bacterium (MIC could not be determined),[2],not sensitive
same,bacterial count in biofilm (CFU/ml × 10^7),"[3]; C 100 μg/ml, 12 day biofilm",14 CFU × 10^7
same,bacterial count in biofilm (CFU/ml × 10^7),"[3]; C 200 μg/ml, 12 day biofilm",10 CFU × 10^7
same,bacterial count in biofilm (CFU/ml × 10^7),"[3]; C 500 μg/ml, 12 day biofilm",7 CFU × 10^7
same,decrease of the number of CFU/ml of the 12-day biofilm versus the positive control,[3],"neither tobramycin 4 μg/ml nor clarithromycin at 100, 200 and 500 μg/ml alone are able to decrease the number of CFU/m1"
same,mean particle size,[4],1.6 μm
NC[C@H]1O[C@H](O[C@H]2[C@H](O)[C@@H](O[C@H]3O[C@H](CO)[C@@H](O)[C@H](N)[C@H]3O)[C@H](N)C[C@@H]2N)[C@H](N)C[C@@H]1O [Tobramycin],activity (MIC) on 12 day old biofilm,[5],no longer active
same,Device deposition,[1]; [6],1.035 mg
same,FPD,[1]; [6],3.60 mg
same,FPF,[1]; [6],36%
same,Filter deposition,[1]; [6],0.664 mg
same,Stage 1 deposition,[1]; [6],1.760 mg
same,Stage 2 deposition,[1]; [6],0.614 mg
same,Stage 3 deposition,[1]; [6],1.512 mg
same,Stage 4 deposition,[1]; [6],1.598 mg
same,Throat deposition,[1]; [6],0.929 mg
same,Device deposition,[1]; [7],0.938 mg
same,FPD,[1]; [7],4.45 mg
same,FPF,[1]; [7],44.5%
same,Filter deposition,[1]; [7],0.838 mg
same,Stage 1 deposition,[1]; [7],1.837 mg
same,Stage 2 deposition,[1]; [7],0.726 mg
same,Stage 3 deposition,[1]; [7],1.818 mg
same,Stage 4 deposition,[1]; [7],1.965 mg
same,Throat deposition,[1]; [7],0.859 mg
same,Device deposition,[1]; [8],1.272 mg
same,FPD,[1]; [8],4.72 mg
same,FPF,[1]; [8],47.2%
same,Filter deposition,[1]; [8],0.778 mg
same,Stage 1 deposition,[1]; [8],1.546 mg
same,Stage 2 deposition,[1]; [8],0.606 mg
same,Stage 3 deposition,[1]; [8],1.895 mg
same,Stage 4 deposition,[1]; [8],2.202 mg
same,Throat deposition,[1]; [8],0.771 mg
same,Device deposition,[1]; [9],1.082 mg
same,FPD,[1]; [9],4.26 mg
same,FPF,[1]; [9],42.5%
same,Filter deposition,[1]; [9],0.760 mg
same,Stage 1 deposition,[1]; [9],1.714 mg
same,Stage 2 deposition,[1]; [9],0.648 mg
same,Stage 3 deposition,[1]; [9],1.742 mg
same,Stage 4 deposition,[1]; [9],1.922 mg
same,Throat deposition,[1]; [9],0.853 mg
same,FPD/capsule,[1]; [10],4.26 mg
same,FPF,[1]; [10],42.5%
same,lung concentration per capsule,[1],42.6 µg/mL
same,bacterial count in biofilm (CFU/ml × 10^7),"[3]; T 4 μg/ml, 12 day biofilm",25 CFU × 10^7
same,decrease of the number of CFU/ml of the 12-day biofilm versus the positive control,[3],"neither tobramycin 4 μg/ml nor clarithromycin at 100, 200 and 500 μg/ml alone are able to decrease the number of CFU/m1"
same,number of CFU/ml,"[3]; tobramycin alone at 4 μg/ml, 12 day biofilm",around 2.5×10^8 CFU/ml
